In patent publication US20060079453A1, “Hla binding peptides and their uses” (priority 2002, published 2006):
Like-named read-outs stand apart in the source and are kept apart here. No end group written: not given here.

What was measured:
HLA-A*2402 = HLA-A*2402 (Homo sapiens, UniProt P04439, D101N/D140Y/D185E/E176V/E190D/F33S/G103R/G107R/I119L/I121M/I306V/K335N/L105A/L180Q/L300P/N151K/N90K/Q86E/Q94H/R106L/R138H/R89G/T104I/T345S/V100E/W191G/Y123F); assay: MHC molecular binding / Capture assay, IC50: A*2402
HLA-A*3002 = HLA-A*3002 (Homo sapiens, UniProt P04439, D101N/D140H/D185E/E176R/F33S/G80R/H175R/K168Q/Q94H/R138E/R41S/V100E); assay: biochemical; format: binding
HLA-A*2301 = HLA-A*2301 (Homo sapiens, UniProt P04439, D101N/D140Y/D185E/E176V/E190D/F33S/G103R/G107R/H175R/I119L/I121M/I306V/K168Q/K335N/L105A/L300P/N151K/N90K/P307H/Q86E/Q94H/R106L/R138H/R89G/T104I/T345S/V100E/W191G/Y123F); assay: biochemical; format: binding
HLA-A*2902 = HLA-A*2902 (Homo sapiens, UniProt P04439, A270S/D101N/D185E/E176V/E277Q/E87Q/F33T/G231S/H175R/I121M/I218V/I322F/K168Q/L300P/L318F/M331R/P208A/P217A/Q86L/T323A/T345S/V100A/V358M); assay: MHC molecular binding / Capture assay, IC50: A*2902
HLA-B*1801 = HLA-B*1801 (Homo sapiens, UniProt P01889, A329T/A93T/A95T/C349S/D201E/D54G/D98Y/E176V/E187T/E204Q/E69T/K202T/Q94N/R155S/R180L/S121R/V306I/Y140S/Y195H/Y33H/Y91S); assay: biochemical; format: binding
HLA-B*4001 = HLA-B*4001 (Homo sapiens, UniProt P01889, A65T/A93T/A95T/D138N/D98Y/E176V/E69K/N87E/Q56L/Q94N/R180L/S121R/S35A/S48T/T167S/V36M/W171L/Y33H/Y91S); assay: biochemical; format: binding
HLA-B*4402 = HLA-B*4402 (Homo sapiens, UniProt P01889, A223V/A65T/A93T/A95T/D201E/D98Y/E176V/E187L/E204Q/E69K/G107R/H137Y/K202T/L105A/L119I/N104T/N87E/Q56L/Q94N/R106L/R155S/R180D/S101N/S121R/S35A/S48T/T118I/V36M/W191S/Y140D/Y91S); assay: biochemical; format: binding
HLA-B*4501 = HLA-B*4501 (Homo sapiens, UniProt P01889, A329T/A65T/A93T/A95T/C349S/D138N/D201E/D98Y/E176V/E187L/E204Q/E69K/H137Y/K202T/L119W/N87E/Q56L/Q94N/R155S/R180D/S121R/S35A/S48T/V127L/V306I/V36M/W191S/Y140L/Y33H/Y91S); assay: biochemical; format: binding
HLA-B*4002 = HLA-B*4002 (Homo sapiens, UniProt P01889, A65T/A93T/A95T/D138N/D201E/D98Y/E176V/E204Q/E69K/K202T/N87E/Q56L/Q94N/R180L/S48T/Y33H/Y91S); assay: biochemical; format: binding

Row | Sequence | IC50 (HLA-A*2402) [µM] | IC50 (HLA-A*3002) [µM] | IC50 (HLA-A*2301) [µM] | IC50 (HLA-A*2902) [µM] | IC50 (HLA-B*4001) [µM] | IC50 (HLA-B*4501) [µM] | also measured
1 | LYPEPTDLF | 0.038 | 30.7 | 0.017 | 1.15 | – | – | –
2 | AEPAAEGVGAV | – | – | – | – | 20.4 | 1.5 | IC50 (HLA-B*1801): > 8.61 µM; IC50 (HLA-B*4402): > 23.9 µM
3 | FYSRIRELRF | 0.011 | 12.6 | 0.0016 | 0.083 | – | – | –
4 | KENLWVTVY | – | – | – | – | 2.74 | 6.22 | IC50 (HLA-B*4002): 0.373 µM; IC50 (HLA-B*1801): 0.184 µM; IC50 (HLA-B*4402): 0.308 µM
5 | SYKSSKRDKF | 0.256 | – | 0.797 | – | – | – | IC50 (HLA-A*3002; Binding affinity to A*3002 (expressed as an IC50)): 0.088 µM; IC50 (HLA-A*2902; Binding affinity to A*2902 (expressed as an IC50)): 12.6 µM
6 | AENFWVTVY | – | – | – | – | 1.39 | 0.289 | IC50 (HLA-B*4002): 0.542 µM
7 | AENLWVTVV | – | – | – | – | 0.084 | 0.035 | IC50 (HLA-B*4002): 0.019 µM; IC50 (HLA-B*1801): 10.7 µM; IC50 (HLA-B*4402): 5.76 µM
8 | IIFHFFLFLL | – | – | – | – | – | – | IC50 (HLA-A*2402; read-out: A*2402 binding affinity (IC50)): 0.208 µM; IC50 (HLA-A*2301; read-out: A*2301 binding affinity (IC50)): 0.08 µM
9 | KYLFTDLRI | 0.108 | 0.339 | 0.0019 | 78.6 | – | – | –
10 | RYPLTFGF | 0.0033 | 6.33 | 0.0064 | 9.7 | – | – | –
11 | VYNFACTEF | 0.014 | 0.784 | 0.0021 | 0.774 | – | – | –
12 | VYDFVFADF | 0.0099 | 3.96 | 0.0022 | 1.23 | – | – | –
13 | LYVYHTQGYF | 0.038 | 1.22 | 0.023 | 1.7 | – | – | –
14 | LYGDTLEQTF | 0.091 | 42 | 0.024 | 40.9 | – | – | –
15 | LYYSKVRKY | 21.9 | 0.028 | 2.74 | 1.45 | – | – | –
16 | AEKLWVTVY | – | – | – | – | 18.3 | 0.219 | IC50 (HLA-B*4402): 0.168 µM
17 | VYYNILIVL | 0.265 | – | 0.052 | – | – | – | IC50 (HLA-A*2902; A*2902 binding affinity (IC50)): > 192 µM

Row | Sequence | IC50 (HLA-A*2402) [µM] | IC50 (HLA-A*3002) [µM] | IC50 (HLA-A*2301) [µM] | IC50 (HLA-A*2902) [µM] | IC50 (HLA-B*4001) [µM] | IC50 (HLA-B*4501) [µM] | also measured
18 | MFVPKYFEL | 0.266 | – | 0.011 | – | – | – | IC50 (HLA-A*3002; A*3002 binding affinity (IC50)): 8.56 µM; IC50 (HLA-A*2902; A*2902 binding affinity (IC50)): 2.56 µM
19 | LYVYHTQGY | 7.14 | 0.258 | 6.09 | 0.216 | – | – | –
20 | AENLWVTVH | – | – | – | – | 0.493 | 0.12 | IC50 (HLA-B*4002): 0.151 µM
21 | AENLWVTVS | – | – | – | – | – | 0.034 | IC50 (HLA-B*1801): 25.7 µM; IC50 (HLA-B*4402): 4.22 µM
22 | AENLWVTDY | – | – | – | – | 0.93 | 0.328 | IC50 (HLA-B*1801): 1 µM; IC50 (HLA-B*4402): 0.191 µM
23 | NYSVYGNTF | 0.028 | 2.56 | 0.029 | 9.12 | – | – | –
24 | LYYLFNQHI | 0.033 | – | 0.0014 | – | – | – | IC50 (HLA-A*3002; A*3002 binding affinity (IC50)): 11 µM; IC50 (HLA-A*2902; A*2902 binding affinity (IC50)): 20.1 µM
25 | RFHSIAGQF | 0.028 | 0.0012 | 0.0029 | 0.481 | – | – | –
26 | AENLFVTVY | – | – | – | – | 0.97 | 0.232 | IC50 (HLA-B*4002): 0.334 µM; IC50 (HLA-B*1801): 0.029 µM
27 | VFADLRIVF | 0.023 | 24.1 | 0.0025 | 0.087 | – | – | –
28 | TFGWCFKF | 3.42 | > 10.1 | 0.462 | 4.45 | – | – | –
29 | AFADLTVVF | 0.203 | 0.137 | 0.03 | 0.779 | – | – | –
30 | AENLWVTVT | – | – | – | – | 0.947 | 0.01 | IC50 (HLA-B*4002): 0.0078 µM; IC50 (HLA-B*4402): 2.7 µM
31 | AEPAAEGVGA | – | – | – | – | 4.12 | 0.104 | IC50 (HLA-B*1801): > 8.12 µM; IC50 (HLA-B*4402): > 22.6 µM
32 | AENLWVTVG | – | – | – | – | 0.861 | 0.035 | IC50 (HLA-B*4002): 0.047 µM; IC50 (HLA-B*1801): 39.7 µM
33 | VYRHCEYIL | 2.2 | – | 0.064 | – | – | – | IC50 (HLA-A*3002; A*3002 binding affinity (IC50)): 3.33 µM; IC50 (HLA-A*2902; A*2902 binding affinity (IC50)): 118 µM
34 | VYEFAFKDLF | 0.015 | 2.04 | 0.0017 | 1.97 | – | – | –
